US20240150362A1, “Substituted Pyrrolotriazines” (Molecure S.A., priority 2022, published 2024)
Counter-ions that a name gives are not always drawn.

Molecular target: T1, full-length USP7 (Homo sapiens, UniProt Q93009)
T1 construct: A 45 μl reaction volume containing full-length USP7 (0.5-1.0 nM)
Test: Enzymatic assay to determine IC50 of USP7 inhibitors (Ubiquitin-Rhodamine 110 cleavage)
Format: biochemical
Details: full-length USP7 0.5-1.0 nM, 0.5 μM Ubiquitin-Rhodamine 110, 30-60 min at 25° C.
Method: Enzymatic Assay to Determine IC50 of USP7 Inhibitors
The IC50 is the concentration of an inhibitor where the measured enzyme activity is reduced by half. In the case of USP7 deubiquitinase, the IC50 of an USP7 inhibitor is the molar concentration of the compound that inhibits 50% of the activity observed in a USP7-mediated-ubiquitin-rhodamine cleavage assay. For the inhibitors disclosed herein, their potency was measured using the following method.
A 45 μl reaction volume containing full-length USP7 (0.5-1.0 nM) in 50 mM HEPES pH 7.5, 150 mM NaCl, 2 mM DTT, 1 mg/ml BSA and 0.05% Tween20 was assembled in wells of 96 well half area black flat bottom plates. Test compounds were first dissolved to 30 mM stocks in DMSO and subsequently introduced to enzyme 15 min after USP7 incubation with DTT at room temperature. The enzymatic reaction was started by adding 0.5 μM Ubiquitin-Rhodamine 110 (final concentration) and allowed to proceed for 30-60 min at 25° C., 250 RPM shaking before Rhodamine fluorescence (485 nm excitation/535 nm emission) was measured using Tecan Spark M10 plate reader. The IC50 values were determined by data fitting to variable slope model four-parameter dose-response curve using GraphPad 7.05.

T1 sequence (Q93009 whole entry): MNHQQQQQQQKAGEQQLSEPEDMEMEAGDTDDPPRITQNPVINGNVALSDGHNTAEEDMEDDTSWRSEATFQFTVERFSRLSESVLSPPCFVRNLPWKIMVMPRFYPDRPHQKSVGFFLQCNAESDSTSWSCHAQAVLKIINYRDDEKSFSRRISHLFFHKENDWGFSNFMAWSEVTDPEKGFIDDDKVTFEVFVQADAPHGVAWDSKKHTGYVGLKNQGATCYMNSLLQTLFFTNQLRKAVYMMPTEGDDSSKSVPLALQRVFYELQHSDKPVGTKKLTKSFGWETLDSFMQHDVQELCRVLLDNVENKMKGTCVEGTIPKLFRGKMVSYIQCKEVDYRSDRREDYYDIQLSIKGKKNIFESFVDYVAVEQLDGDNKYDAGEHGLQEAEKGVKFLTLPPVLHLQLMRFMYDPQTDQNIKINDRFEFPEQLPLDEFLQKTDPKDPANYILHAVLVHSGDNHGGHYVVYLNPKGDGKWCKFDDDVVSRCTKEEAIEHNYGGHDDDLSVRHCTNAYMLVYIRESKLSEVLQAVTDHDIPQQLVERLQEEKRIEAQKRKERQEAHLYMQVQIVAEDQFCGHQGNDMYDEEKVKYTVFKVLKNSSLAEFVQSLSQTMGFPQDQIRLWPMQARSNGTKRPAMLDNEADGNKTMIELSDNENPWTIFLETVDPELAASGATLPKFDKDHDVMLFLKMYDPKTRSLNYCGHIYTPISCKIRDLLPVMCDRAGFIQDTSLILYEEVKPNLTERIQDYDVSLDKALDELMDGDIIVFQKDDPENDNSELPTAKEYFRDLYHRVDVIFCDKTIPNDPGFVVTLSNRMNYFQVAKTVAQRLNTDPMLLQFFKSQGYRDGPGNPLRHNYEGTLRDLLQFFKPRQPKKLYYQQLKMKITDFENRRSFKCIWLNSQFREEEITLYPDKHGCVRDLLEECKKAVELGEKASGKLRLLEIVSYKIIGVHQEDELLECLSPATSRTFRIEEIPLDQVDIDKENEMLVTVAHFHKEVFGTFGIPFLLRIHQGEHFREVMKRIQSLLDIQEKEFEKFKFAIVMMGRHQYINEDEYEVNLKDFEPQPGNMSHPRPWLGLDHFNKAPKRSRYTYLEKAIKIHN

IC50	SMILES
< 500 nM	Cc1cc(Cl)cc(-c2ncnn3cc(CN4C(=O)CN(C)CC4=O)cc23)c1CC1CNC[C@H](C)O1 (single isomer, unassigned) [Example 117, hydrochloride]
< 500 nM	C[C@H]1CNCC(Cc2c(Cl)cc(Cl)cc2-c2ncnn3cc(Cn4c(=O)ccn(C)c4=O)cc23)O1 (single isomer, unassigned) [Example 126, hydrochloride]
< 500 nM	Cc1cc(Cl)cc(-c2ncnn3cc(CN4C(=O)C5C(C4=O)C5(C)C)cc23)c1CN1CCNC[C@@H]1C (stereo partly drawn) [Example 6, 3-((4-(5-chloro-3-methyl-2-(((S)-2-methylpiperazin-1-yl)methyl)phenyl)pyrrolo[2,1-f][1,2,4]triazin-6-yl)methyl)-6,6-dimethyl-3-azabicyclo[3.1.0]hexane-2,4-dione hydrochloride]
< 500 nM	CC1(C)C2C(=O)N(Cc3cc4c(-c5cc(Cl)cc6ccn(CC7(F)CCNCC7)c56)ncnn4c3)C(=O)C21 (stereo not drawn) [Example 10, 3-((4-(5-chloro-1-((4-fluoropiperidin-4-yl)methyl)-1H-indol-7-yl)pyrrolo[2,1-f][1,2,4]triazin-6-yl)methyl)-6,6-dimethyl-3-azabicyclo[3.1.0]hexane-2,4-dione hydrochloride]
< 500 nM	Cc1cc(Cl)cc(-c2ncnn3cc(CN4C(=O)C5C(C4=O)C5(C)C)cc23)c1CN1[C@@H](C)CNC[C@@H]1C (stereo partly drawn) [Example 11, 3-((4-(5-chloro-2-(((2S,6S)-2,6-dimethylpiperazin-1-yl)methyl)-3-methylphenyl)pyrrolo[2,1-f][1,2,4]triazin-6-yl)methyl)-6,6-dimethyl-3-azabicyclo[3.1.0]hexane-2,4-dione dihydrochloride]
< 500 nM	Cc1cc(Cl)cc(-c2ncnn3cc(CN4C(=O)C5C(C4=O)C5(C)C)cc23)c1O[C@@H]1CNC[C@@H]1F (stereo partly drawn) [Example 14, 3-((4-(5-chloro-2-(((3R,4S)-4-fluoropyrrolidin-3-yl)oxy)-3-methylphenyl)pyrrolo[2,1-f][1,2,4]triazin-6-yl)methyl)-6,6-dimethyl-3-azabicyclo[3.1.0]hexane-2,4-dione hydrochloride]
< 500 nM	CC1(C)C2C(=O)N(Cc3cc4c(-c5cc(Cl)cc6ccn(CC7CNCCO7)c56)ncnn4c3)C(=O)C21 (stereo not drawn) [Example 24, 3-((4-(5-chloro-1-(morpholin-2-ylmethyl)-1H-indol-7-yl)pyrrolo[2,1-f][1,2,4]triazin-6-yl)methyl)-6,6-dimethyl-3-azabicyclo[3.1.0]hexane-2,4-dione dihydrochloride]
< 500 nM	CC1(C)C2C(=O)N(Cc3cc4c(-c5cc(Cl)cc6ccn(CC7(C#N)CCNCC7)c56)ncnn4c3)C(=O)C21 (stereo not drawn) [Example 25, 4-((5-chloro-7-(6-((6,6-dimethyl-2,4-dioxo-3-azabicyclo[3.1.0]hexan-3-yl)methyl)pyrrolo[2,1-f][1,2,4]triazin-4-yl)-1H-indol-1-yl)methyl)piperidine-4-carbonitrile 2,2,2-trifluoroacetate]
< 500 nM	Cc1cc(Cl)cc(-c2ncnn3cc(CN4C(=O)C5C(C4=O)C5(C)C)cc23)c1CC1CNC[C@H](C)O1 (stereo partly drawn) [Example 27, 3-((4-(5-chloro-3-methyl-2-(((6S)-6-methylmorpholin-2-yl)methyl)phenyl)pyrrolo[2,1-f][1,2,4]triazin-6-yl)methyl)-6,6-dimethyl-3-azabicyclo[3.1.0]hexane-2,4-dione dihydrochloride]
< 500 nM	Cc1cc(Cl)cc(-c2ncnn3cc(CN4C(=O)C5C(C4=O)C5(C)C)cc23)c1OCC1CCNCC1 (stereo not drawn) [Example 48, 3-((4-(5-chloro-3-methyl-2-(piperidin-4-ylmethoxy)phenyl)pyrrolo[2,1-f][1,2,4]triazin-6-yl)methyl)-6,6-dimethyl-3-azabicyclo[3.1.0]hexane-2,4-dione hydrochloride]
< 500 nM	Cc1cc(Cl)cc(-c2ncnn3cc(CN4C(=O)C5C(C4=O)C5(C)C)cc23)c1CC1CN[C@@H](C)CO1 (stereo partly drawn) [Example 49, 3-((4-(5-chloro-3-methyl-2-(((5S)-5-methylmorpholin-2-yl)methyl)phenyl)pyrrolo[2,1-f][1,2,4]triazin-6-yl)methyl)-6,6-dimethyl-3-azabicyclo[3.1.0]hexane-2,4-dione hydrochloride]

The remaining lines, values behind:

SMILES	IC50
Cc1cc(Cl)cc(-c2ncnn3cc(Cn4c(=O)c(C)cn(C)c4=O)cc23)c1CC1CNC[C@H](C)O1 (single isomer, unassigned) [Example 115, hydrochloride]	< 500 nM
Cc1cc(Cl)cc(-c2ncnn3cc(Cn4c(=O)cc[nH]c4=O)cc23)c1C[C@@H]1CNCCO1 (single isomer, unassigned) [Example 124, hydrochloride]	< 500 nM
Cc1cc(Cl)cc(-c2ncnn3cc(CN4C(=O)C5C(C4=O)C5(C)C)cc23)c1O[C@H]1CCCNC1 (stereo partly drawn) [Example 1, 3-((4-(5-chloro-3-methyl-2-(((S)-piperidin-3-yl)oxy)phenyl)pyrrolo[2,1-f][1,2,4]triazin-6-yl)methyl)-6,6-dimethyl-3-azabicyclo[3.1.0]hexane-2,4-dione hydrochloride]	< 500 nM
Cc1cc(Cl)cc(-c2ncnn3cc(CN4C(=O)C5C(C4=O)C5(C)C)cc23)c1C[C@@H]1CNCCO1 (stereo partly drawn) [Example 2, 3-((4-(5-chloro-3-methyl-2-(((R)-morpholin-2-yl)methyl)phenyl)pyrrolo[2,1-f][1,2,4]triazin-6-yl)methyl)-6,6-dimethyl-3-azabicyclo[3.1.0]hexane-2,4-dione hydrochloride]	< 500 nM
Cc1cc(Cl)cc(-c2ncnn3cc(CN4C(=O)C5C(C4=O)C5(C)C)c(C)c23)c1C[C@@H]1CNCCO1 (stereo partly drawn) [Example 13, 3-((4-(5-chloro-3-methyl-2-(((R)-morpholin-2-yl)methyl)phenyl)-5-methylpyrrolo[2,1-f][1,2,4]triazin-6-yl)methyl)-6,6-dimethyl-3-azabicyclo[3.1.0]hexane-2,4-dione hydrochloride]	500 to 1000 nM
CC1(C)C2C(=O)N(Cc3cc4c(-c5cc(C(F)(F)F)cc6ccn(CC7(F)CCNCC7)c56)ncnn4c3)C(=O)C21 (stereo not drawn) [Example 22, 3-((4-(1-((4-fluoropiperidin-4-yl)methyl)-5-(trifluoromethyl)-1H-indol-7-yl)pyrrolo[2,1-f][1,2,4]triazin-6-yl)methyl)-6,6-dimethyl-3-azabicyclo[3.1.0]hexane-2,4-dione hydrochloride]	< 500 nM
CC1(C)C2C(=O)N(Cc3cc4c(-c5cc(Cl)cc6ccn(CC7(F)CCCNC7)c56)ncnn4c3)C(=O)C21 (stereo not drawn) [Example 29, 3-((4-(5-chloro-1-((3-fluoropiperidin-3-yl)methyl)-1H-indol-7-yl)pyrrolo[2,1-f][1,2,4]triazin-6-yl)methyl)-6,6-dimethyl-3-azabicyclo[3.1.0]hexane-2,4-dione hydrochloride]	< 500 nM
CC1(C)C2C(=O)N(Cc3cc4c(-c5cc([N+](=O)[O-])cc6ccn(C[C@@H]7CNCCO7)c56)ncnn4c3)C(=O)C21 (stereo partly drawn) [Example 32, 6,6-dimethyl-3-((4-(1-(((S)-morpholin-2-yl)methyl)-5-nitro-1H-indol-7-yl)pyrrolo[2,1-f][1,2,4]triazin-6-yl)methyl)-3-azabicyclo[3.1.0]hexane-2,4-dione 2,2,2-trifluoroacetate]	< 500 nM
CC1(C)C2C(=O)N(Cc3cc4c(-c5cc(C(F)(F)F)cc6ccn(C[C@@H]7CNCCO7)c56)ncnn4c3)C(=O)C21 (stereo partly drawn) [Example 35, 6,6-dimethyl-3-((4-(1-(((S)-morpholin-2-yl)methyl)-5-(trifluoromethyl)-1H-indol-7-yl)pyrrolo[2,1-f][1,2,4]triazin-6-yl)methyl)-3-azabicyclo[3.1.0]hexane-2,4-dione 2,2,2-trifluoroacetate]	< 500 nM
O=C1CNC(=O)N1Cc1cc2c(-c3cc(Cl)cc4ccn(C[C@@H]5CNCCO5)c34)ncnn2c1 [Example 37, (S)-3-((4-(5-chloro-1-(morpholin-2-ylmethyl)-1H-indol-7-yl)pyrrolo[2,1-f][1,2,4]triazin-6-yl)methyl)imidazolidine-2,4-dione hydrochloride]	< 500 nM
Cn1ccc(=O)n(Cc2cc3c(-c4cc(Cl)cc5ccn(C[C@@H]6CNCCO6)c45)ncnn3c2)c1=O [Example 39, (S)-3-((4-(5-chloro-1-(morpholin-2-ylmethyl)-1H-indol-7-yl)pyrrolo[2,1-f][1,2,4]triazin-6-yl)methyl)-1-methylpyrimidine-2,4(1H,3H)-dione hydrochloride]	< 500 nM
CC1(C)C2C(=O)N(Cc3cc4c(-c5cc(Cl)cc6cnn(C[C@@H]7CNCCO7)c56)ncnn4c3)C(=O)C21 (stereo partly drawn) [Example 44, 3-((4-(5-chloro-1-(((S)-morpholin-2-yl)methyl)-1H-indazol-7-yl)pyrrolo[2,1-f][1,2,4]triazin-6-yl)methyl)-6,6-dimethyl-3-azabicyclo[3.1.0]hexane-2,4-dione 2,2,2-trifluoroacetate]	< 500 nM
CC1(C)C2C(=O)N(Cc3cc4c(-c5cc(Cl)cc6c(F)nn(C[C@@H]7CNCCO7)c56)ncnn4c3)C(=O)C21 (stereo partly drawn) [Example 45, 3-((4-(5-chloro-3-fluoro-1-(((S)-morpholin-2-yl)methyl)-1H-indazol-7-yl)pyrrolo[2,1-f][1,2,4]triazin-6-yl)methyl)-6,6-dimethyl-3-azabicyclo[3.1.0]hexane-2,4-dione hydrochloride]	< 500 nM
